{"source": "patent US6113907A", "about": "“Pharmaceutical grade St. John's Wort” (priority 1997, dated 2000)", "key": {"[1]": {"tested_on": "glioma cells", "conditions": "tissue culture; cited from earlier work"}, "[2]": {"tested_on": "MAOB", "assay": "NIMH/NovaScreen screen, MAOB", "format": "biochemical", "conditions": "up to 0.1 mM", "experimental": "(§1) Through an NIMH screening contract (NovaScreen™, Baltimore, Md.) a commercially available crude extract from the fresh flowers and buds of Hypericum perforatum [1:1.5; hydro-alcohol (40:60) made from flowering tops; Herb Pharm] containing ~0.1% hypericin was dried under vacuum, dissolved in 4% DMSO, and diluted to an initial concentration of 50 mg/ml for in vitro screening in a battery of 39 receptor assays and two enzyme systems (Table 5, below)."}, "[3]": {"tested_on": "adenosine receptor", "assay": "adenosine receptor non-selective (ADNS), [3H] NECA, bovine striatal membranes", "format": "binding", "experimental": "To determine the inhibitory activity of the substances for the dopamine receptor (dp) the following assay was preformed. A partial receptor preparation was prepared from bovine striatal membranes using [^3 H] spiperone as the ligand at a final concentration of 0.3 nM. To determine non-specific binding cold spiperone was tested at 1 μM. The reactions were carried out in 50 mM Tris-HCl (pH 7.7) containing 120 mM NaCl, 5 mM KCl, 2 mM CaCl2 and 1 mM MgCl2 at 37° C. for 60 minutes. […] The inhibitory properties of the substances for binding of ligand to the adenosine receptor (ADNS) was measured using a partially purified receptor preparation made from bovine striatal membranes. The radioligand used was [^3 H] 5'-N-ethylcarboxyamidoadenosine (NECA) at a final ligand concentration of 4 nM. Non-specific binding was determined in the presence of 10 μM NECA. The reactions were carried out in 50 mM Tris-HCL (pH 7.7) for 60 minutes at 25° C. […] To measure the inhibitory activity of the substances for the opiate receptor (Opiate) receptor was partially purified from rat forebrains. [^3 H] naloxone at 1 nM as the ligand used. Non-specific binding was determined in the presence of 1 μM of naloxone. The assays were carried out in 50 mM Tris-HCl (pH 7.4) at 25° C. for 90 minutes. […] The neuronal nicotinic receptor (Nicotinic Neuronal) was assayed using receptors partially purified from rat cortical membranes. The radioligand used was [^3 H] N-methylcarbamylcholine iodide at a final ligand concentration of 5 nM. Non-specific binding was determined in the presence of 1 μM nicotine sulfate. The assay reactions were carried out in 50 mM Tris-HCl (pH 7.4) containing 120 mM NaCl, 5 mM KCl, 2 mM CaCl2, 1 mM MgCl2, and 3 μM atropine sulfate at 4° C. for 60 minutes. […] To determine how the substances inhibit the corticotropin releasing factor (CRF) partially purified receptor from rat cortical membranes was used as the receptor preparation. […] Tyr-° CRF at a final ligand concentration of 0.1 nM. Non-specific binding was determined in the presence of 1 μM Tyr-° CRF. The reactions were carried out in 50 mM HEPES containing 10 mM MgCl2, 2 mM EGTA, 0.12 TIU/ml aprotinin and 0.3% BSA at 25° C. for 120 minutes. The reaction is terminated by centrifugation in a Sorvall centrifuge for 15 minutes at 4° C."}, "[4]": {"tested_on": "murine cytomegalovirus", "conditions": "cited from earlier work"}, "[5]": {"tested_on": "opiate receptor", "assay": "opiate receptor non-selective, [3H] naloxone, rat forebrain", "format": "binding", "experimental": "To determine the inhibitory activity of the substances for the dopamine receptor (dp) the following assay was preformed. A partial receptor preparation was prepared from bovine striatal membranes using [^3 H] spiperone as the ligand at a final concentration of 0.3 nM. To determine non-specific binding cold spiperone was tested at 1 μM. The reactions were carried out in 50 mM Tris-HCl (pH 7.7) containing 120 mM NaCl, 5 mM KCl, 2 mM CaCl2 and 1 mM MgCl2 at 37° C. for 60 minutes. […] The inhibitory properties of the substances for binding of ligand to the adenosine receptor (ADNS) was measured using a partially purified receptor preparation made from bovine striatal membranes. The radioligand used was [^3 H] 5'-N-ethylcarboxyamidoadenosine (NECA) at a final ligand concentration of 4 nM. Non-specific binding was determined in the presence of 10 μM NECA. The reactions were carried out in 50 mM Tris-HCL (pH 7.7) for 60 minutes at 25° C. […] To measure the inhibitory activity of the substances for the opiate receptor (Opiate) receptor was partially purified from rat forebrains. [^3 H] naloxone at 1 nM as the ligand used. Non-specific binding was determined in the presence of 1 μM of naloxone. […] Non-specific binding was determined in the presence of 1 μM nicotine sulfate. […] Non-specific binding was determined in the presence of 1 μM Tyr-° CRF. […]"}, "[6]": {"tested_on": "muscarinic receptor for the central nervous system", "assay": "muscarinic receptor for the central nervous system (M1 Central), [3H] QNB, rat cortical membranes", "format": "binding", "conditions": "10^-4; 100 µM", "experimental": "(§2) Fourteen additional bioassays were preformed on either extracts, fractions or reference compounds for this botanical. To measure inhibition of [^3 H] PK11195 to the benzodiazepine receptor (BDZ) a partially purified receptor preparation was made from rat kidney membranes. The final radioactive ligand concentration was 1 nM and non-specific binding was measured using 200 nM cold PK11195. The substances, receptor and ligand were reacted in 50 mM Tris-HCL (pH 7.7) at 0-4° C. for 60 minutes. The reaction was terminated by rapid filtration of the samples through glass fiber filters. […] The inhibition of [^3 H] pinrenzepine to the muscarinic M1 receptor (M1) by the substances was measured using a partially purified receptor from bovine striatal membranes. The final hot ligand concentration was 1 nM and non-specific binding was determined in the presence of 100 nM atropine. […] The reactions were terminated by rapid vacuum filtration of the reaction mixture through glass fiber filters. […] To assay for biological activity for the muscarinic receptor for the central nervous system, receptor was partially purified from rat cortical membranes. […] Non-specific binding was determined in the presence of 100 nM atropine. […] Non-specific binding was determined using 1 mM NMDA. […] Non-specific binding was determined using 100 μM AMPA."}, "[7]": {"tested_on": "MAO", "conditions": "cited from earlier work"}, "[8]": {"tested_on": "benzodiazepine receptor (BDZ)", "assay": "benzodiazepine receptor (BDZ), [3H] PK11195, rat kidney membranes", "format": "binding", "conditions": "10^-4; 60 min, 100 µM", "experimental": "as §2"}, "[9]": {"assay": "stability", "format": "physicochemical", "conditions": "our data", "source_text": "Some botanicals, such as St. John's Wort, are both temperature and light sensitive. For this type of botanical the material should be dry packed with a refrigerant or shipped under refrigeration and protected from light and air. […] Stability (in absence of air) was increased to six months in a preparation extracted with ethanol.\nPhloroglucinola include hyperforin (prenylated derivative of phloroglucinol), adhyperforin (similar to the bitter principle of hops, adhumulone)."}, "[10]": {"tested_on": "Sindbis virus", "conditions": "cited from earlier work"}, "[11]": {"conditions": "mice; cited from earlier work"}, "[12]": {"tested_on": "NMDA", "assay": "Receptor Binding by Hypericin, NMDA", "experimental": "as §1"}, "[13]": {"target": "protein kinase C", "conditions": "cited from earlier work"}}, "note": "Where two headings read alike, the source gives them in different places.", "data": [{"smiles": "Cc1cc(O)c2c(=O)c3c(O)cc(O)c4c5c(O)cc(O)c6c(=O)c7c(O)cc(C)c8c1c2c(c34)c(c78)c65", "note": "[Hypericin, hypericin]", "values": [{"measurement": "growth of glioma cells", "setting": "[1]", "value": "inhibit the growth of glioma cells"}, {"measurement": "MAO-B inhibition", "setting": "[2]", "value": "lacked significant MAOA or MAO-^B inhibition"}, {"measurement": "ADNS", "setting": "[3]; 10^-4, 60 min, 100 µM", "value": 70, "unit": "%"}, {"measurement": "AD,NS % inhibition (PharmaPrint range)", "setting": "[3]; 10^-4 M", "value": "70 ± 20", "unit": "%"}, {"measurement": "activity against murine cytomegalovirus", "setting": "[4]", "value": "Activity has also been reported"}, {"measurement": "OPNS", "setting": "[5]; 10^-4, Table 9I, 100 µM", "value": 44, "unit": "%"}, {"measurement": "Opiate NS % inhibition (PharmaPrint range)", "setting": "[5]; 10^-4 M", "value": "70 ± 35", "unit": "%"}, {"measurement": "M1 Central", "setting": "[6]", "value": 55, "unit": "%"}, {"measurement": "concentration inhibiting MAO", "setting": "[7]; Suzuki et al., 80% purity", "value": 50, "unit": "µg/mL"}, {"measurement": "confirmation of MAO inhibition", "setting": "[7]", "value": "failed to confirm this effect"}, {"measurement": "BDZ", "setting": "[8]", "value": 33, "unit": "%"}, {"measurement": "stability in solution", "setting": "[9]", "value": "unstable in solution"}, {"measurement": "activity against Sindbis virus", "setting": "[10]", "value": "Activity has also been reported"}, {"measurement": "antiviral activity in vivo", "setting": "[11]", "value": "show antiviral activity in vivo (mice)"}, {"measurement": "% Inhibition NMDA", "setting": "[12]; 1 μM", "value": 48.5, "unit": "%"}, {"measurement": "% Inhibition NMDA", "setting": "[12]; 10 μM", "value": 81.7, "unit": "%"}, {"measurement": "% Inhibition NMDA", "setting": "[12]; 100 μM", "value": -20.7, "unit": "%"}, {"measurement": "% Inhibition NMDA", "setting": "[12]; .001 μM", "value": 10.5, "unit": "%"}, {"measurement": "% Inhibition NMDA", "setting": "[12]; .01 μM", "value": 24.5, "unit": "%"}, {"measurement": "% Inhibition NMDA", "setting": "[12]; .1 μM", "value": -0.3, "unit": "%"}, {"measurement": "Ki", "setting": "[12]; read-out: Ki NMDA", "value": "~1000", "unit": "nM"}, {"measurement": "Ki", "setting": "[12]; read-out: ~Ki NMDA (Table 7)", "value": "~1100", "unit": "nM"}, {"measurement": "protein kinase C IC50", "setting": "[13]", "value": 1.7, "unit": "µg/mL"}]}]}
